Data: PubChem BioAssay AID248 (DTP/NCI, 2004)
“And” between values parts separate entries of the source, which are not always exact repeats. Equal values may be shown once. Toxic doses and inconclusive results are not listed.

Test system: L1210 leukemia ip in BDF1 mice, survival T/C
Experiment: NCI In Vivo Anticancer Drug Screen. Data for tumor model L1210 Leukemia (intraperitoneal) in B6D2F1 (BDF1) mice
Conditions: endpoint: mean survival time, higher = longer survival
In short: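 Value reflects the ratio of survival in compound-treated mice to survival in vehicle-treated controls, with both groups carrying the same transplanted tumor.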

[1] = dose: 100.0 mg/kg/injection, schedule: Q01DX001 (ip), vehicle: saline
[2] = dose: 100.0 mg/kg/injection, schedule: Q04DX003 (ip), vehicle: saline
[3] = dose: 200.0 mg/kg/injection, schedule: Q01DX001 (ip), vehicle: saline
[4] = dose: 200.0 mg/kg/injection, schedule: Q04DX003 (ip), vehicle: saline
[5] = dose: 400.0 mg/kg/injection, schedule: Q01DX001 (ip), vehicle: saline
[6] = dose: 400.0 mg/kg/injection, schedule: Q04DX003 (ip), vehicle: saline
[7] = dose: 100.0 mg/kg/injection, schedule: Q01DX001 (ip), vehicle: carboxymethylcellulose (CMC)
[8] = dose: 200.0 mg/kg/injection, schedule: Q01DX001 (ip), vehicle: carboxymethylcellulose (CMC)
[9] = dose: 400.0 mg/kg/injection, schedule: Q01DX001 (ip), vehicle: carboxymethylcellulose (CMC)
[10] = dose: 100.0 mg/kg/injection, schedule: Q04DX003 (ip), vehicle: Klucel (hydroxypropylcellulose) (HPC)
[11] = dose: 200.0 mg/kg/injection, schedule: Q04DX003 (ip), vehicle: Klucel (hydroxypropylcellulose) (HPC)
[12] = dose: 400.0 mg/kg/injection, schedule: Q04DX003 (ip), vehicle: Klucel (hydroxypropylcellulose) (HPC)
[13] = dose: 100.0 mg/kg/injection, schedule: Q01DX009 (ip), vehicle: saline with Tween-80
[14] = dose: 200.0 mg/kg/injection, schedule: Q01DX009 (ip), vehicle: saline with Tween-80

Question: What does the source list for `CCOC(=O)C(CC(C)C)NP(=O)(CCl)N(CCCl)CCCl` (centres undefined)?
Answer: T/C (dose: 25.0 mg/kg/injection, schedule: Q01DX015 (ip), vehicle: other): 102 % of control; T/C (dose: 50.0 mg/kg/injection, schedule: Q01DX015 (ip), vehicle: other): 104 % of control; T/C [1]: 104 % of control; T/C (dose: 100.0 mg/kg/injection, schedule: Q01DX015 (ip), vehicle: other): 102 % of control; T/C [2]: 95 % of control; T/C [3]: 104 % of control; T/C (dose: 200.0 mg/kg/injection, schedule: Q01DX015 (ip), vehicle: other): 102 % of control; T/C [4]: 95 % of control; T/C [5]: 106 % of control; T/C [6]: 91 % of control

Question: `C[P+](C)(Cc1ccc([N+](=O)[O-])cc1)c1ccccc1` was tested. Which T/C (dose: 12.0 mg/kg/injection, schedule: Q04DX003 (ip), vehicle: saline) did it give?
Answer: The T/C was 98 % of control.

Question: What about the T/C (dose: 25.0 mg/kg/injection, schedule: Q01DX009 (ip), vehicle: saline) of the same molecule?
Answer: Its T/C is 105 % of control.

Question: And the T/C (dose: 25.0 mg/kg/injection, schedule: Q04DX003 (ip), vehicle: saline)?
Answer: Its T/C is 104 % of control.

Question: What about the T/C (dose: 50.0 mg/kg/injection, schedule: Q01DX009 (ip), vehicle: saline) of the same molecule?
Answer: The T/C was 109 % of control.

Question: And the T/C (dose: 50.0 mg/kg/injection, schedule: Q04DX003 (ip), vehicle: saline)?
Answer: The T/C was 104 % of control.

Question: What does the source list for `O=[N+]([O-])c1ccc(OCCCCCBr)c(Cl)c1`?
Answer: T/C (dose: 100.0 mg/kg/injection, schedule: Q04DX003 (ip), vehicle: gum acacia): 102 % of control; T/C (dose: 200.0 mg/kg/injection, schedule: Q04DX003 (ip), vehicle: gum acacia): 100 % of control; T/C (dose: 400.0 mg/kg/injection, schedule: Q04DX003 (ip), vehicle: gum acacia): 102 % of control

Question: What does the source list for `CCCC(=O)N1CC(C)OC(C)C1` (centres undefined)?
Answer: T/C [1]: 100 % of control; T/C (dose: 100.0 mg/kg/injection, schedule: Q01DX009 (ip), vehicle: saline): 98 % of control and 104 % of control; T/C (dose: 100.0 mg/kg/injection, schedule: Q04DX002 (ip), vehicle: saline): 109 % of control; T/C [2]: 98 % of control; T/C [3]: 93 % of control; T/C (dose: 200.0 mg/kg/injection, schedule: Q01DX009 (ip), vehicle: saline): 100 % of control and 104 % of control; T/C (dose: 200.0 mg/kg/injection, schedule: Q04DX002 (ip), vehicle: saline): 115 % of control; T/C [4]: 104 % of control; T/C [5]: 104 % of control; T/C (dose: 400.0 mg/kg/injection, schedule: Q01DX009 (ip), vehicle: saline): 96 % of control and 107 % of control; T/C (dose: 400.0 mg/kg/injection, schedule: Q04DX002 (ip), vehicle: saline): 102 % of control; T/C [6]: 100 % of control

Question: `CN(C)c1ccc(/C=C\c2ccnc3ccccc23)cc1` was tested. Which T/C (dose: 10.0 mg/kg/injection, schedule: Q01DX Z (ip), vehicle: methylcellulose (MC)) did it give?
Answer: Its T/C is 98 % of control.

Question: What about the T/C (dose: 18.0 mg/kg/injection, schedule: Q01DX010 (ip), vehicle: saline) of the same molecule?
Answer: Its T/C is 93 % of control and 102 % of control.

Question: And the T/C (dose: 27.0 mg/kg/injection, schedule: Q01DX010 (ip), vehicle: saline)?
Answer: Its T/C is 95 % of control and 102 % of control.

Question: And the T/C (dose: 40.0 mg/kg/injection, schedule: Q01DX010 (ip), vehicle: saline)?
Answer: The T/C was 101 % of control and 91 % of control.

Question: And the T/C (dose: 50.0 mg/kg/injection, schedule: Q01DX001 (ip), vehicle: carboxymethylcellulose (CMC))?
Answer: The T/C was 106 % of control.

Question: And the T/C (dose: 60.0 mg/kg/injection, schedule: Q01DX010 (ip), vehicle: saline)?
Answer: Its T/C is 86 % of control and 90 % of control.

Question: What about the T/C [7] of the same molecule?
Answer: Its T/C is 97 % of control.

Question: And the T/C [8]?
Answer: Its T/C is 89 % of control.

Question: What about the T/C [9] of the same molecule?
Answer: Its T/C is 101 % of control.

Question: With `CN(C)CCSSCCN(C)C` as the molecule, how does the T/C (dose: 50.0 mg/kg/injection, schedule: Q01DX001 (ip), vehicle: saline) read?
Answer: The T/C was 102 % of control.

Question: And the T/C [1]?
Answer: The T/C was 104 % of control.

Question: What about the T/C [3] of the same molecule?
Answer: The T/C was 96 % of control.

Question: How did the T/C (dose: 100.0 mg/kg/injection, schedule: Q01DX009 (ip), vehicle: Klucel (hydroxypropylcellulose) (HPC)) turn out when `O=C(Nc1ccccc1C(F)(F)F)c1ccc(Cl)c(Cl)c1` was run?
Answer: Its T/C is 92 % of control.

Question: What about the T/C [10] of the same molecule?
Answer: Its T/C is 91 % of control.

Question: What about the T/C (dose: 200.0 mg/kg/injection, schedule: Q01DX009 (ip), vehicle: Klucel (hydroxypropylcellulose) (HPC)) of the same molecule?
Answer: The T/C was 89 % of control.

Question: And the T/C [11]?
Answer: Its T/C is 90 % of control.

Question: What about the T/C [12] of the same molecule?
Answer: The T/C was 88 % of control.

Question: With `CCCCCCCCCCCCCCCCOc1ccc(C(=S)N2CCOCC2)cc1Cl` as the molecule, how does the T/C [10] read?
Answer: The T/C was 104 % of control.

Question: And the T/C [11]?
Answer: The T/C was 91 % of control.

Question: And the T/C [12]?
Answer: The T/C was 86 % of control.

Question: What does the source list for `CCN(CC)CC(C)Nc1ccc([N+](=O)[O-])c2sc3ccccc3c(=O)c12` (centres undefined)?
Answer: T/C (dose: 9.0 mg/kg/injection, schedule: Q01DX Z (ip), vehicle: carboxymethylcellulose (CMC)): 122 % of control; T/C (dose: 10.0 mg/kg/injection, schedule: Q01DX Z (ip), vehicle: other): 107 % of control; T/C (dose: 12.0 mg/kg/injection, schedule: Q01DX Z (ip), vehicle: methylcellulose (MC)): 108 % of control and 112 % of control; T/C (dose: 17.7 mg/kg/injection, schedule: Q01DX Z (ip), vehicle: carboxymethylcellulose (CMC)): 108 % of control; T/C (dose: 18.0 mg/kg/injection, schedule: Q01DX Z (ip), vehicle: methylcellulose (MC)): 110 % of control and 114 % of control; T/C (dose: 26.0 mg/kg/injection, schedule: Q01DX Z (ip), vehicle: carboxymethylcellulose (CMC)): 122 % of control; T/C (dose: 27.0 mg/kg/injection, schedule: Q01DX Z (ip), vehicle: carboxymethylcellulose (CMC)): 122 % of control; T/C (dose: 40.0 mg/kg/injection, schedule: Q01DX Z (ip), vehicle: carboxymethylcellulose (CMC)): 175 % of control; T/C (dose: 41.0 mg/kg/injection, schedule: Q01DX Z (ip), vehicle: carboxymethylcellulose (CMC)): 169 % of control; T/C (dose: 80.0 mg/kg/injection, schedule: Q01DX Z (ip), vehicle: carboxymethylcellulose (CMC)): 170 % of control; T/C (dose: 90.0 mg/kg/injection, schedule: Q01DX Z (ip), vehicle: other): 171 % of control; T/C (dose: 250.0 mg/kg/injection, schedule: Q## X000 (other), vehicle: carboxymethylcellulose (CMC)): 158 % of control; T/C (dose: 270.0 mg/kg/injection, schedule: Q01DX Z (ip), vehicle: other): 97 % of control

Question: What does the source list for `O=C(O)c1cccc(SSc2cccc(C(=O)O)c2)c1`?
Answer: T/C [7]: 94 % of control; T/C [8]: 100 % of control; T/C [9]: 102 % of control

Question: What does the source list for `O=C(Nc1ccccc1C(F)(F)F)c1ccc(Cl)cc1Cl`?
Answer: T/C [13]: 91 % of control; T/C (dose: 100.0 mg/kg/injection, schedule: Q04DX003 (ip), vehicle: saline with Tween-80): 94 % of control; T/C [14]: 96 % of control; T/C (dose: 200.0 mg/kg/injection, schedule: Q04DX003 (ip), vehicle: saline with Tween-80): 92 % of control; T/C (dose: 400.0 mg/kg/injection, schedule: Q01DX009 (ip), vehicle: saline with Tween-80): 89 % of control; T/C (dose: 400.0 mg/kg/injection, schedule: Q04DX003 (ip), vehicle: saline with Tween-80): 95 % of control

Question: Which results are given for `O=C1c2ccccc2C(=O)N1CCOCCOCCOCCN1C(=O)c2ccccc2C1=O`?
Answer: T/C (dose: 50.0 mg/kg/injection, schedule: Q01DX009 (ip), vehicle: saline with Tween-80): 97 % of control; T/C [13]: 91 % of control; T/C (dose: 100.0 mg/kg/injection, schedule: Q04DX002 (ip), vehicle: Klucel (hydroxypropylcellulose) (HPC)): 102 % of control; T/C [14]: 94 % of control; T/C (dose: 200.0 mg/kg/injection, schedule: Q04DX002 (ip), vehicle: Klucel (hydroxypropylcellulose) (HPC)): 94 % of control; T/C (dose: 400.0 mg/kg/injection, schedule: Q04DX002 (ip), vehicle: Klucel (hydroxypropylcellulose) (HPC)): 102 % of control

Question: How did the T/C [13] turn out when `Cc1ccc(N2CCN(C3=CCC(C(C)C)CC3)CC2)cc1Cl` (centres undefined) was run?
Answer: Its T/C is 106 % of control.
